From patent US20160361380A1, “COMBINATION COMPOSITIONS FOR TREATING DISORDERS REQUIRING REMOVAL OR DESTRUCTION OF UNWANTED CELLULAR PROLIFERATIONS” (Nymox Corporation, priority 2015, published 2016)
Ends that are not written are not given here.

Tests used:
Format in all cases: in vivo, human
[1] = tested on: patients with BPH not previously on conventional oral medications; assay: BPH study in patients never before on oral BPH medications, injection then oral medications, Symptom Score (Example Two)
Experimental: In a study of 30 patients who had not previously ever taken conventional approved oral medications for their BPH, the patients received a double-blind single injection of DRUG (n=21) or vehicle alone (placebo) (n=9) and were followed clinically for 2-5 years. Patients from both of the above drug and vehicle only placebo groups who had not previously received conventional oral medications and subsequently went on conventional oral medications were evaluated for their responses to the conventional oral BPH medications.

[2] = tested on: patients with benign prostatic hyperplasia (BPH); assay: Double-blind BPH study, single intraprostatic injection followed by conventional oral BPH medications, IPSS (Example One); settings: NTP peptide plus additional oral medication vs placebo plus additional oral medication
Description: In a study of 97 patients who had or had not previously ever taken conventional approved oral medications for their benign prostatic hyperplasia (BPH), the patients received a double-blind single injection of a specific peptide described by the amino acid sequence Ile-Asp-Gln-Gln-Val-Leu-Ser-Arg-Ile-Lys-Leu-Glu-Ile-Lys-Arg-Cys-Leu (hereinafter “DRUG”) (n=61) or vehicle alone (placebo) (n=36) and were followed clinically for 2-5 years. Patients with BPH were given an intraprostatic injection of either a) DRUG in phosphate buffered saline pH 7.2 (“PBS”) or b) PBS alone, under double-blind conditions by a urologist in an office setting under ultrasound guidance. Patients were followed for 2 to 5 years with regular physical examinations, laboratory tests, and evaluations of symptoms. […]
Symptomatic evaluation was measured by the International Prostate Symptom Score (IPSS) which is a quantitative scale used to gauge prostatic symptomatic improvement or worsening. The IPSS quantifies the following: 1) incomplete bladder emptying after urination; 2) frequent urination; 3) stopping and starting during urination; 4) urgent need to urinate; 5) weakness of urinary stream; 6) need to push or strain during urination; 7) need to urinate after going to sleep at night (nocturia). […]

patients with BPH = assay: Cross-over study: BPH patients on PBS plus oral medication, then additional DRUG injection, IPSS (Example Three); settings: same patients after cross-over to DRUG vs PBS + oral medication
Experimental: In another study, patients with BPH were given an intraprostatic injection of PBS pH 7.2 vehicle alone, under double-blind conditions by a urologist in an office setting under ultrasound guidance. Patients were followed for 1 to 3 years with regular physical examinations, laboratory tests, and evaluations of symptoms. Patients who received PBS vehicle alone injections and who subsequently received in addition conventional oral medications used to treat BPH such as alpha blockers were assessed before and after receiving an additional injection of DRUG in phosphate buffered saline pH 7.2 (“PBS”). Symptomatic evaluation was measured by the International Prostate Symptom Score (IPSS) which is a quantitative scale used to gauge prostatic symptomatic improvement or worsening. The difference from baseline IPSS was compared in patients who were given blinded PBS only plus conventional oral medications vs results in the same patients on oral medications after cross-over to DRUG.

[3] = tested on: patients with BPH who subsequently underwent surgical treatment; assay: BPH study: single injection, subsequent surgical treatment, Symptom Score (Example Four)
Description: 973 patients who had not previously ever undergone surgical procedures for their BPH (including all types of surgical procedures such as transurethral resection of the prostate, laser ablation, microwave, needle ablation, and other minimally invasive surgical treatments) received a double-blind single injection of DRUG or vehicle alone (placebo) and were followed clinically for 2-5 years. All (N=58) patients from the above drug and vehicle alone placebo groups who had not previously undergone surgical treatment for their BPH and who subsequently underwent surgical treatment for their BPH (N=58) were then evaluated for their responses to the surgical procedures.

IDQQVLSRIKLEIKRCL [DRUG]
Mean IPSS Improvement, when compared to the control ([1]; naive patients, NTP peptide then oral medication vs placebo then oral medication): about 221% | mean improvement in Symptom Score ([1]; oral-medication-naive patients, single injection then conventional oral BPH medication, 2-5 years, n=21): 7.48 points | Mean IPSS Improvement, when compared to the control [2]: about 40% | Mean IPSS Improvement, when compared to the control (patients with BPH): about 110% | Mean IPSS Improvement, when compared to the control ([3]; NTP peptide prior to surgical treatment vs placebo prior to surgery): about 142% | mean improvement in Symptom Score after surgery ([3]; single injection, subsequent surgical treatment for BPH, n=31): 15.3 points
